Data set [1] in a line: Angle of repose (flowability) of powder. The class given is physicochemical.
Another data set in a line: Storage life. The data set is classed as physicochemical.

Results on 1 compound are retold here after patent US20090240048A1, “Alpha-crystalline form of substituted selenoxanthenes and the method of its preparation” (MEDBIOPHARM LTD, priority 2008, published 2009).

For the compound `c1ccc(C2C3=C(CCCC3)[Se]C3=C2CCCC3)cc1` [9-phenyl-symmetrical-octahydroselenoxanthene], in data set [1], the Angle of repose was found to be 52°. This compound showed a Storage life in the data set “Storage life” of 6 months.
